{"source": "ChEMBL document CHEMBL5532720", "about": "“A Potent Solution for Tumor Growth and Angiogenesis Suppression via an ELR+CXCL-CXCR1/2 Pathway Inhibitor” (ACS Med Chem Lett, 2024)", "key": {"786-0 [1]": {"tested_on": "786-0", "assay": "Antiproliferative activity against human 786-0 cells incubated for 48 hrs by XTT assay", "type": "functional, cell-based", "conditions": "786-0, 48 h"}, "A498 [2]": {"tested_on": "A498", "assay": "Inhibition of CXCL8-induced cell migration in human A498 cells at 0.5 uM incubated for 24 hrs by crystal violet staining based analysis relative to control", "type": "functional"}, "[3]": {"assay": "Genotoxicity in Salmonella typhimurium TA98 upto 100 uM in presence of S9 fraction by Ames test", "type": "toxicity, subcellular", "conditions": "salmonella enterica subsp. enterica serovar typhimurium, s9, 100 µM"}, "A498 [4]": {"tested_on": "A498", "assay": "Effect on VEGFA production in human A498 cells at 1 to 2.5 uM incubated for 48 hrs by ELISA", "type": "functional, cell-based", "conditions": "dose 1-2.5 µM"}, "A498 [5]": {"tested_on": "A498", "assay": "Downregulation of CXCL1 mRNA expression in human A498 cells at 1 to 2.5 uM incubated for 48 hrs by qPCR analysis", "type": "functional, cell-based", "conditions": "dose 1-2.5 µM"}, "A498 [6]": {"tested_on": "A498", "assay": "Downregulation of CXCL8 mRNA expression in human A498 cells at 1 to 2.5 uM incubated for 48 hrs by qPCR analysis", "type": "functional, cell-based", "conditions": "dose 1-2.5 µM"}, "[7]": {"biological_target": "Aurora kinase B (Homo sapiens) (UniProt Q96GD4)", "assay": "Inhibition of AURKB (unknown origin) at 10 uM in presence of ATP at Km concentration"}, "[8]": {"biological_target": "Calcium/calmodulin-dependent protein kinase type II subunit beta (Homo sapiens) (UniProt Q13554)", "sequence (Q13554 whole entry)": "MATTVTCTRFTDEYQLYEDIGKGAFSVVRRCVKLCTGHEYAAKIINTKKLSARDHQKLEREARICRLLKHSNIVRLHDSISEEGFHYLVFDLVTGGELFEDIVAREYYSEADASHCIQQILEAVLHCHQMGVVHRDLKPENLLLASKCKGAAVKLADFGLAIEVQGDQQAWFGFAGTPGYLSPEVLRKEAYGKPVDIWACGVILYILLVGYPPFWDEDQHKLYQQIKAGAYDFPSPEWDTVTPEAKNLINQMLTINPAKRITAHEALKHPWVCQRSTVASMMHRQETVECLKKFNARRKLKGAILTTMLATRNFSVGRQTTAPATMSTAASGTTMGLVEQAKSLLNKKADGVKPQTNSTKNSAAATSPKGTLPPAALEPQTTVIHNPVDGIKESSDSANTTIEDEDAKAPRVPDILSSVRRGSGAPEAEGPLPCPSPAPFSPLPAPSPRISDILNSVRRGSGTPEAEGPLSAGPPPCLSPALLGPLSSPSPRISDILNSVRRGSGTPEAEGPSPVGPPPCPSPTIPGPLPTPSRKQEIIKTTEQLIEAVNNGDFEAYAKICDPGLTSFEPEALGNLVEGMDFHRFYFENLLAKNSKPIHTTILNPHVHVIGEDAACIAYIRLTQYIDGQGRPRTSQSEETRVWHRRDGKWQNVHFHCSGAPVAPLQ", "assay": "Inhibition of CAMK2B (unknown origin) at 10 uM in presence of ATP at Km concentration"}, "[9]": {"biological_target": "CDK7/Cyclin H/MNAT1 (Homo sapiens) (UniProt P51946+P50613+P51948)", "assay": "Inhibition of CDK7/cyclin H/MNAT1 (unknown origin) at 10 uM in presence of ATP at Km concentration", "type": "protein-complex assay"}, "[10]": {"biological_target": "CDK8/Cyclin C (Homo sapiens) (UniProt P49336+P24863)", "assay": "Inhibition of CDK8/cyclin C (unknown origin) at 10 uM in presence of ATP at Km concentration", "type": "protein-complex assay"}, "[11]": {"biological_target": "Glycogen synthase kinase-3 beta (Homo sapiens) (UniProt P49841)", "sequence (P49841 whole entry, looked up)": "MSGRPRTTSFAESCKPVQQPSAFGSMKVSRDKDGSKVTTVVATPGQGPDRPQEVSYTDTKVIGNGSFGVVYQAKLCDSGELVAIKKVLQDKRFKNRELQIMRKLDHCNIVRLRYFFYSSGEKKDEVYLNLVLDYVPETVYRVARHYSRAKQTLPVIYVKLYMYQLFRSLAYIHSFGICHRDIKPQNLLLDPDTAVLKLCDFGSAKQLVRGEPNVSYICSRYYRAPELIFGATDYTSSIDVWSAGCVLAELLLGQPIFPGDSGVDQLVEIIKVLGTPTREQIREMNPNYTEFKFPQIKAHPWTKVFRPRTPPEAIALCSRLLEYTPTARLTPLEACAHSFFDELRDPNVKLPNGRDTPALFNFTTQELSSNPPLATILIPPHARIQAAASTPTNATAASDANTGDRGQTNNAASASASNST", "assay": "Inhibition of GSK3B (unknown origin) at 10 uM in presence of ATP at Km concentration"}, "[12]": {"biological_target": "Insulin receptor (Homo sapiens) (UniProt P06213)", "assay": "Inhibition of INSR (unknown origin) at 10 uM in presence of ATP at Km concentration"}, "[13]": {"biological_target": "Mitogen-activated protein kinase kinase kinase 11 (Homo sapiens) (UniProt Q16584)", "assay": "Inhibition of MAP3K11 (unknown origin) at 10 uM in presence of ATP at Km concentration"}, "[14]": {"biological_target": "Mitogen-activated protein kinase kinase kinase kinase 2 (Homo sapiens) (UniProt Q12851)", "sequence (Q12851 whole entry)": "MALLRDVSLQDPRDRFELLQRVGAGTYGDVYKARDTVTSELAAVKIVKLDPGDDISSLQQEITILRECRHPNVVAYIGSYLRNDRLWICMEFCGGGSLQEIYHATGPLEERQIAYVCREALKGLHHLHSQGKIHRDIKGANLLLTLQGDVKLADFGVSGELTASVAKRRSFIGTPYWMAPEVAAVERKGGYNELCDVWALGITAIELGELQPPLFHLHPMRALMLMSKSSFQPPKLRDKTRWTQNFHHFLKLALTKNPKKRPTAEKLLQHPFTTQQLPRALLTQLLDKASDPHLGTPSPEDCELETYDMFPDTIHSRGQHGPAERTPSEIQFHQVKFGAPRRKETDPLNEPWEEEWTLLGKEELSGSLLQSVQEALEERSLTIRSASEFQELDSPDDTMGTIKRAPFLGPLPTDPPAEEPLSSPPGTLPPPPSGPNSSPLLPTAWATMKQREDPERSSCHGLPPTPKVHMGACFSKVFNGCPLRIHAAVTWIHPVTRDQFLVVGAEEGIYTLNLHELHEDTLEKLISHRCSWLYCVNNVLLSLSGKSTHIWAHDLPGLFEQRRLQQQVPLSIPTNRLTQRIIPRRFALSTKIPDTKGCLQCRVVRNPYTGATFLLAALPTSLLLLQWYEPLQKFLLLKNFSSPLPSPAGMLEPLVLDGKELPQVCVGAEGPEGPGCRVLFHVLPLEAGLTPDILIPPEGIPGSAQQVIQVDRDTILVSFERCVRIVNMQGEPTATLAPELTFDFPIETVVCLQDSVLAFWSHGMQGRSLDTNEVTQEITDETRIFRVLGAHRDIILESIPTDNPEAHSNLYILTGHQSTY", "assay": "Inhibition of MAP4K2 (unknown origin) at 10 uM in presence of ATP at Km concentration"}, "[15]": {"biological_target": "Mitogen-activated protein kinase kinase kinase kinase 4 (Homo sapiens) (UniProt O95819)", "assay": "Inhibition of MAP4K4 (unknown origin) at 10 uM in presence of ATP at Km concentration"}, "[16]": {"biological_target": "Mitogen-activated protein kinase kinase kinase kinase 5 (Homo sapiens) (UniProt Q9Y4K4)", "assay": "Inhibition of MAP4K5 (unknown origin) at 10 uM in presence of ATP at Km concentration"}, "[17]": {"biological_target": "Myosin-IIIb (Homo sapiens) (UniProt Q8WXR4)", "sequence (Q8WXR4 whole entry)": "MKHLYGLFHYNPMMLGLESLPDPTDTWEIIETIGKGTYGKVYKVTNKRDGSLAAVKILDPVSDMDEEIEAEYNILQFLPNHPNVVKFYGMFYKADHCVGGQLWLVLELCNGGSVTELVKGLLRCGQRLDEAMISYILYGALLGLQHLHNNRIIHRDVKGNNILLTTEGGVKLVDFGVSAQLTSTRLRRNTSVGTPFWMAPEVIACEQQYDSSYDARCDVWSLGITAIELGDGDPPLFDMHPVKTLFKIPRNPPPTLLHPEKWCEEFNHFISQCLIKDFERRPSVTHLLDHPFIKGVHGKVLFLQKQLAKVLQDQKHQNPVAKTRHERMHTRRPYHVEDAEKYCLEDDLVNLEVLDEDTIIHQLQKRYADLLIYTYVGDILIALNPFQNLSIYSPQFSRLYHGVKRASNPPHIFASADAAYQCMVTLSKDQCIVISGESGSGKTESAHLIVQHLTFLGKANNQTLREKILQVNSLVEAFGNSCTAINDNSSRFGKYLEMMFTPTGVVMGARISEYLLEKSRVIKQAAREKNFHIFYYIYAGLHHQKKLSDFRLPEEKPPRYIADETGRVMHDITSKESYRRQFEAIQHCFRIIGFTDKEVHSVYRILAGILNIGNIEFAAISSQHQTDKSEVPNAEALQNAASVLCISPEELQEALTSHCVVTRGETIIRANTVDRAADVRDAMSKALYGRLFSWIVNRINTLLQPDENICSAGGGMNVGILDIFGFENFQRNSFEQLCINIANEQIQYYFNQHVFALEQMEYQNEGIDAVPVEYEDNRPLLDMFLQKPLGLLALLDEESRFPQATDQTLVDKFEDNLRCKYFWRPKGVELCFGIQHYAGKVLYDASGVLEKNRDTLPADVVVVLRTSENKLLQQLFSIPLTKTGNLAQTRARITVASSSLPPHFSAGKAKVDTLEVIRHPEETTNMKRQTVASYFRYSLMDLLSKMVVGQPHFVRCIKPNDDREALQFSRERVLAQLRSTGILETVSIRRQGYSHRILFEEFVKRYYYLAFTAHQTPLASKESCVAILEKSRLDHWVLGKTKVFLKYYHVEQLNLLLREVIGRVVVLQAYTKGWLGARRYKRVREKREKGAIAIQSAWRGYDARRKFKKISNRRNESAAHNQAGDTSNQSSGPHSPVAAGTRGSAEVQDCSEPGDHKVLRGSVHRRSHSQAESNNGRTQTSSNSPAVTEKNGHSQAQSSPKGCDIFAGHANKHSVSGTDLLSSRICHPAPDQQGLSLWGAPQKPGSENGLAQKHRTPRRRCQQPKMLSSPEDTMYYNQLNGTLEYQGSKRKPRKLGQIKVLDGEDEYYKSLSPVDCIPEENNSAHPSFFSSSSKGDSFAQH", "assay": "Inhibition of MYO3B (unknown origin) at 10 uM in presence of ATP at Km concentration"}, "[18]": {"biological_target": "Serine/threonine-protein kinase PAK 4 (Homo sapiens) (UniProt O96013)", "assay": "Inhibition of PAK4 (unknown origin) at 10 uM in presence of ATP at Km concentration"}, "[19]": {"biological_target": "Inactive tyrosine-protein kinase PEAK1 (Homo sapiens) (UniProt Q9H792)", "assay": "Inhibition of PEAK1 (unknown origin) at 10 uM in presence of ATP at Km concentration"}, "[20]": {"biological_target": "Phosphatidylinositol 4-kinase beta (Homo sapiens) (UniProt Q9UBF8)", "assay": "Inhibition of PI4KB (unknown origin) at 10 uM in presence of ATP at Km concentration"}, "[21]": {"biological_target": "Phosphatidylinositol 4-phosphate 5-kinase type-1 gamma (Homo sapiens) (UniProt O60331)", "assay": "Inhibition of PIP5K1C (unknown origin) at 10 uM in presence of ATP at Km concentration"}, "[22]": {"biological_target": "Ribosomal protein S6 kinase alpha-2 (Homo sapiens) (UniProt Q15349)", "sequence (Q15349 whole entry)": "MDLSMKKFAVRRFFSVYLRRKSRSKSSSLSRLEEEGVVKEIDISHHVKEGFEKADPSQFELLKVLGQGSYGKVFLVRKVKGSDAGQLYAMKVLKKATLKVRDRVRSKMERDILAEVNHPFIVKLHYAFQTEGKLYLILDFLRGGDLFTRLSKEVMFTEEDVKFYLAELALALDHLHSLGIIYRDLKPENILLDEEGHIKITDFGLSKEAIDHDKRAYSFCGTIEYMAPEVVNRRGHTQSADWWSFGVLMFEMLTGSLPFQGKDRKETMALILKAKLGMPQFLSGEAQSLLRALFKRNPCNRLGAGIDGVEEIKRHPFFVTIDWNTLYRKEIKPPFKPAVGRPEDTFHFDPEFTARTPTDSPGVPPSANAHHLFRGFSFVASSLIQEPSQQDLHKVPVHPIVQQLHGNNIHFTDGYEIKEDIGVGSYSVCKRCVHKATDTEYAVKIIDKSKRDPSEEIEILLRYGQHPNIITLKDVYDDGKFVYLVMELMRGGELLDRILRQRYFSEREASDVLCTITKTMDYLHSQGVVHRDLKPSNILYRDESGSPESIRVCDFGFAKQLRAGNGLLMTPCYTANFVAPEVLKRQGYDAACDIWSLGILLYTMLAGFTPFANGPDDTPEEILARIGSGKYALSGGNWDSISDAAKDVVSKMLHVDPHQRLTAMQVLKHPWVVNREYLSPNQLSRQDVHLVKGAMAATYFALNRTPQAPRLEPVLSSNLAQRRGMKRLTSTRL", "assay": "Inhibition of RPS6KA2 (unknown origin) at 10 uM in presence of ATP at Km concentration"}, "[23]": {"biological_target": "Serine/threonine-protein kinase SIK3 (Homo sapiens) (UniProt Q9Y2K2)", "assay": "Inhibition of SIK3 (unknown origin) at 10 uM in presence of ATP at Km concentration"}, "[24]": {"biological_target": "Angiopoietin-1 receptor (Homo sapiens) (UniProt Q02763)", "sequence (Q02763 whole entry)": "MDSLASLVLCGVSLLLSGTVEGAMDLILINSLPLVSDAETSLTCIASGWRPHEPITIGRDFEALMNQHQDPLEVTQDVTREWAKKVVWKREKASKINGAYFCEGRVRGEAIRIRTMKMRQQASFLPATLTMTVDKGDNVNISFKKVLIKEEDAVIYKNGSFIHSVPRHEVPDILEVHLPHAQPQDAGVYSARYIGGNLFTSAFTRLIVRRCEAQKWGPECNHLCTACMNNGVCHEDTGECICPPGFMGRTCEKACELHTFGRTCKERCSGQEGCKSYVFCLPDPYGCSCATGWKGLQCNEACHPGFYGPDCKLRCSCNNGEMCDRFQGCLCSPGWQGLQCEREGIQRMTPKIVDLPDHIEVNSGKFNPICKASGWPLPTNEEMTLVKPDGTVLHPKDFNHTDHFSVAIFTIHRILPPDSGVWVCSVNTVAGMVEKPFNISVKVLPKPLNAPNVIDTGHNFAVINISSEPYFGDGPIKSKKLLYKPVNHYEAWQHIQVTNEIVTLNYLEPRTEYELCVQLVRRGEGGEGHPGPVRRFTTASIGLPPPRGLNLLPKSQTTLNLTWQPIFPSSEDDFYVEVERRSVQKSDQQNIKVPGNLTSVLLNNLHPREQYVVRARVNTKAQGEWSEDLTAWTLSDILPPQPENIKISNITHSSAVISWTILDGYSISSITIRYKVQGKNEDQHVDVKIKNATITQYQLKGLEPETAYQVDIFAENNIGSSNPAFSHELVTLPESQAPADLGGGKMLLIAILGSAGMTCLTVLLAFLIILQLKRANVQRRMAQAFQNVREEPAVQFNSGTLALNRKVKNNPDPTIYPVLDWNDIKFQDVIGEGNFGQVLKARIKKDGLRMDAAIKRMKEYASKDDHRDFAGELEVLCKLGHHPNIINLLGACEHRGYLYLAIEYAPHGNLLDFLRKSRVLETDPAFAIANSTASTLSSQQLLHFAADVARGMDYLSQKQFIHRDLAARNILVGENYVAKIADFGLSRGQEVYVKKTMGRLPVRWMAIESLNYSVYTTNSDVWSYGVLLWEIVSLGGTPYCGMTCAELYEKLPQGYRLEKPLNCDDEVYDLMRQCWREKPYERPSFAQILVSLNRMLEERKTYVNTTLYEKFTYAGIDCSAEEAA", "assay": "Inhibition of TEK (unknown origin) at 10 uM in presence of ATP at Km concentration"}, "TIME": {"tested_on": "TIME", "assay": "Inhibition of CXCL8-dependent cell migration in human TIME cells at 0.5 uM incubated for 24 hrs by crystal violet staining based analysis", "type": "functional"}, "A498 [25]": {"tested_on": "A498", "assay": "(§1) Antimetastatic activity against human A498 cells labeled with vybrant DiD cell-labeling solution xenografted in zebrafish embryo at 1 uM incubated for 72 hrs by fluorescence microscopic imaging analysis", "type": "functional, cell-based"}, "A498 [26]": {"tested_on": "A498", "assay": "as §1, with “embryo assessed as inhibition of neovascularization by measuring decrease in fluorescence intensity of GFP labeled blood vessel” for “embryo”", "type": "functional, cell-based"}, "[27]": {"assay": "Lipophilicity, logD of compound at pH 7.4", "type": "physicochemical", "conditions": "buffer"}, "[28]": {"assay": "Stability of compound at pH 2 measured after 24 hrs", "type": "physicochemical", "conditions": "buffer, pH 2, 24 h"}, "[29]": {"assay": "Stability of compound in DMSO measured after 24 hrs", "type": "physicochemical"}, "[30]": {"assay": "Aqueous solubility of compound in SIF at pH 7.5", "type": "ADME"}, "[31]": {"assay": "Protein binding in mouse plasma", "type": "ADME, cell-free", "conditions": "read-out: PPB (converted)"}, "[32]": {"assay": "Protein binding in human plasma", "type": "ADME, cell-free", "conditions": "read-out: PPB (converted)"}, "[33]": {"assay": "Stability in mouse plasma assessed as half-life", "type": "ADME, cell-free"}, "[34]": {"assay": "Stability in human plasma assessed as half-life", "type": "ADME, cell-free"}, "[35]": {"assay": "Stability in human microsomes assessed as compound remaining measured after 1 hrs", "type": "ADME, Microsome", "conditions": "read-out: Stability"}, "[36]": {"assay": "Stability in mouse hepatocytes assessed as half-life", "type": "ADME, cell-based, Hepatocyte"}, "[37]": {"assay": "Stability in human hepatocytes assessed as intrinsic clearance measured per 10^6 cells", "type": "ADME, cell-based, Hepatocyte", "conditions": "read-out: CLH"}, "[38]": {"assay": "Tmax in NOD SCID mouse at 100 mg/kg, po", "type": "ADME, organism-based", "conditions": "in vivo"}, "[39]": {"assay": "Half-life in NOD SCID mouse at 200 mg/kg, po", "type": "ADME, organism-based", "conditions": "in vivo"}, "[40]": {"assay": "AUC (0 to infinity) in NOD SCID mouse at 100 mg/kg, po", "type": "ADME, organism-based", "conditions": "in vivo"}, "[41]": {"assay": "Oral bioavailability in NOD SCID mouse at 50 mg/kg", "type": "ADME, organism-based", "conditions": "in vivo"}, "786-0 [42]": {"tested_on": "786-0", "assay": "Antitumor activity against human 786-0 cells xenografted in athymic nude mouse assessed as tumor growth inhibition at 100 mg/kg, po administered twice daily via gavage for 28 days relative to control", "type": "functional", "conditions": "786-0, 672 h, time 28 day, read-out: TGI"}}, "note": "Calls of active or inactive are those of the source. The rule behind the calls is not given here.", "data": [{"smiles": "O=C(Nc1cc(Cl)cc(Cl)c1)Nc1nc2ccc([N+](=O)[O-])cc2s1", "values": [{"measurement": "IC50", "setting": "786-0 [1]", "result": 2500, "unit": "nM"}, {"measurement": "inhibition at 0.5 µM", "setting": "A498 [2]", "result": "> 50", "unit": "%"}, {"measurement": "Activity", "setting": "[3]", "result": "Non-Toxic"}, {"measurement": "Activity", "setting": "A498 [4]", "result": "inactive"}, {"measurement": "Activity", "setting": "A498 [5]", "result": "Active"}, {"measurement": "Activity", "setting": "A498 [6]", "result": "Active"}, {"measurement": "inhibition", "setting": "[7]", "result": "inactive"}, {"measurement": "inhibition", "setting": "[8]", "result": "inactive"}, {"measurement": "inhibition", "setting": "[9]", "result": "inactive"}, {"measurement": "inhibition", "setting": "[10]", "result": "inactive"}, {"measurement": "inhibition", "setting": "[11]", "result": "inactive"}, {"measurement": "inhibition", "setting": "[12]", "result": "inactive"}, {"measurement": "inhibition", "setting": "[13]", "result": "inactive"}, {"measurement": "inhibition", "setting": "[14]", "result": "inactive"}, {"measurement": "inhibition", "setting": "[15]", "result": "inactive"}, {"measurement": "inhibition", "setting": "[16]", "result": "inactive"}, {"measurement": "inhibition", "setting": "[17]", "result": "inactive"}, {"measurement": "inhibition", "setting": "[18]", "result": "inactive"}, {"measurement": "inhibition", "setting": "[19]", "result": "inactive"}, {"measurement": "inhibition", "setting": "[20]", "result": "inactive"}, {"measurement": "inhibition", "setting": "[21]", "result": "inactive"}, {"measurement": "inhibition", "setting": "[22]", "result": "inactive"}, {"measurement": "inhibition", "setting": "[23]", "result": "inactive"}, {"measurement": "inhibition", "setting": "[24]", "result": "inactive"}, {"measurement": "inhibition", "setting": "TIME", "result": "Active"}, {"measurement": "Activity", "setting": "A498 [25]", "result": "Active"}, {"measurement": "Activity", "setting": "A498 [26]", "result": "Active"}, {"measurement": "logD", "setting": "[27]", "result": 2.86}, {"measurement": "Stability", "setting": "[28]", "result": "Stable"}, {"measurement": "Stability", "setting": "[29]", "result": "Stable"}, {"measurement": "solubility", "setting": "[30]", "result": 3, "unit": "µM"}, {"measurement": "fraction unbound", "setting": "[31]", "result": 0.004}, {"measurement": "fraction unbound", "setting": "[32]", "result": 0.004}, {"measurement": "half-life", "setting": "[33]", "result": "> 4.82", "unit": "h"}, {"measurement": "half-life", "setting": "[34]", "result": "> 4.82", "unit": "h"}, {"measurement": "remaining at 1 h", "setting": "[35]", "result": 71, "unit": "%"}, {"measurement": "half-life", "setting": "[36]", "result": 0.352, "unit": "h"}, {"measurement": "hepatocyte CLint", "setting": "[37]", "result": 35.9, "unit": "µL/min/1e6 cells"}, {"measurement": "Tmax", "setting": "[38]", "result": 1.5, "unit": "h"}, {"measurement": "half-life", "setting": "[39]", "result": 2.7, "unit": "h"}, {"measurement": "AUC(0-inf)", "setting": "[40]", "result": 14200, "unit": "ng·h/mL"}, {"measurement": "bioavailability", "setting": "[41]", "result": 39, "unit": "%"}, {"measurement": "inhibition in vivo at 100 mg/kg", "setting": "786-0 [42]", "result": 87, "unit": "%"}]}]}
